“Also recorded” adds a separate entry of the source.
What was measured:
[1] = system: antibody-forming cells (AFC) in the spleen; test: Influence of compound on humoral immune response to sheep erythrocytes, C57B1/6 female mice (AFC in spleen, hemagglutinins); format: in vivo; settings: for Amount of antibody-forming cells per 10^6 spleen cells / Amount of antibody-forming cells per spleen: M ± SEM; for Spleen index: with SRBC i.p.; for Amount of hemagglutinins: serum
Description: The increase was calculated as compared with the amount of cells in the animals immunised only with sheep erythrocytes.
(§1) 0.15 ml of compound 10 was administered intravenously to 6 mice females of CS7B1/6 line (weight 18-22 g) in doses of 45.5, 91 and 136.5 μg of compound 10 per capita for each testing group according to the dose. Simultaneously, a suspension of 5·10^7 sheep erythrocytes was injected intraperitoneally (0.2 ml per capita). Mice in the control group were injected intravenously with equal volume of saline. The effects of compound 10 on humoral immune response were analyzed both by counting the quantity of AFC in the spleen according to Cunningham (per 10^6 spleen cells and per spleen) and estimating the titers of hemagglutining antibodies in serum of the animals (Cunningham A. J., Nature, 1965, Vol.207, No 5001. P.1106-1107), while the titers of hemagglutinating antibodies were evaluated according to litterature (Evans J. et al., Cell, 1974; Vol 3., p.153-158, Feizi T., Menger E., Transfusion, 1970, Vol. 10, p.33-35,).
(§2) 0.15 ml of compound 11 was administered intravenously to 6 female mice of the C57B1/6 line (weight 18-22 g) in doses of 45.5, 91 and 136.5 μg of compound 11 per capita for each testing group according to the dose. Simultaneously, a suspension of 5·10^7 sheep erytrocytes was injected intraperitoneally (0.2 ml per capita). Mice in the control group were injected intravenously with an equal volume of saline. The effects of compound 11 on humoral immune response was analysed both by counting the quantity of AFC in the spleen according to Cunningham (per 10^6 spleen cells and per spleen) and estimating the titers of hemagglutining antibodies in serum of the animals.
as §2, with “12” for “11”, “erythrocytes” for “erytrocytes”, “analyzed” for “analysed”
as §2, with “compound 8” for “compound 11”, “sheep erythrocytes” for “sheep erytrocytes”, “Mice of” for “Mice in”, “response were analyzed” for “response was analysed”
0.15 ml of compound 3 was administered intravenously to 6 female mice of the C57B1/6 line (weight 18-22 g) in doses of 45.5, 91 and 136.5 μg of compound 3 per capita for each testing group according to the dose. Simultaneously, a suspension of 5·10^7 sheep erytrocytes was injected intraperitoneally (0.2 ml per capita). Mice of the control group were injected intravenously with equal volume of saline.

[2] = system: antibody-forming cells (AFC) in the spleen; test: Influence of human AFP/compound complex and compound alone on humoral immune response, C57B1/6 male mice; format: in vivo; settings: compound alone
Description: The influence of complexes of AFP with one of the title compounds 1-4, 1a-4a, 5-20 as well as their basic components on humoral immune response was estimated by counting the quantity of antibody-forming cells (AFC) in the mice spleen.
(§3) 0.15 ml of AFP/Compound 3 complex was administered intravenously to 6 mice males of C57B1/6 line (weight 18-22 g) in the dose of […] of AFP and 45.5 μg of compound 3 per capita. Simultaneously suspension of 5·10^7 sheep erythrocytes was injected intraperitoneally (0.2 ml per capita). In the group with compound 3 mice were injected intravenously by one in the dose of 45.5 μg. Animals of group with AFP received 9 μg of AFP. Mice of control group were injected intravenously with equal volume of saline. Complex AFP/Compound 3 effect on humoral immune response was analyzed by counting the quantity of AFC in the spleen according to Cunningham (per 10^6 spleen cells and per spleen).
(§4) 0.15 ml of AFP/Compound 2a complex (1:100) was administered intravenously to 6 mice males of C57B1/6 line (weight 18-22 g) in the dose of 9 μg of AFP and 45.5 μg of compound 2a per capita. Simultaneously, a suspension of 5·10^7 sheep erythrocytes was injected intraperitoneally (0.2 ml per capita). In the group with compound 2a mice were injected intravenously by one in the dose of 45.5 μg. Animals of group with AFP received 9 μg of AFP. Mice in the control group were injected intravenously with an equal volume of saline. The effect of the AFP/Compound 2a complex on humoral immune response was analyzed by counting the quantity of AFC in the spleen according to Cunningham (per 10^6 spleen cells and per spleen).
(§5) 0.15 ml of AFP/Compound 10 complex (1:200) was administered intravenously to 6 male mice of C57B1/6 line (weight 18-22 g) in the dose of 9 μg of AFP and 91 μg of compound 10 per capita. Simultaneously, a suspension of 5·10^7 sheep erythrocytes was injected intraperitoneally (0.2 ml per capita). In the group receiving compound 10 mice were injected intravenously by one in the dose of 91 μg. Animals in the group with AFP received 9 μg of AFP. Micein the control group were injected intravenously with an equal volume of saline. The effect of the AFP/Compound 10 complex on humoral immune response was analyzed by counting the quantity of AFC in the spleen according to Cunningham (per 10^6 spleen cells and per spleen).
as §5, with “AFP/Compound 14” for “AFP/Compound 10”, “compound 14” for “compound 10”, “group with” for “group receiving”, “Animals of” for “Animals in the”, “AFP. Mice in” for “AFP. Micein”

[3] = system: antibody-forming cells (AFC) in the spleen; test: Influence of AFP/compound complexes and their components on humoral immune response (AFC in spleen); format: in vivo, C57B1/6 mice; settings: for Dose at which immunostimulating effect in vivo is displayed: compound in a complex with AFP
Description: as §3, §4, §5
as §5, with “AFP/Compound 14” for “AFP/Compound 10”, “compound 14” for “compound 10”, “group with” for “group receiving”, “Animals of” for “Animals in the”, “AFP. Mice in” for “AFP. Micein”
0.15 ml of AFP/Compound 7 complex (1:200) was administered intravenously to 6 male mice of C57B1/6 line (weight 18-22 g) in the dose of 9 μg of AFP and 91 μg of compound 7 per capita. Simultaneously, a suspension of 5·10^7 sheep erythrocytes was injected intraperitoneally (0.2 ml per capita). In the group with compound 7 mice were injected intravenously by one in the dose of 91 μg. Animals of group with AFP received 9 μg of AFP. Mice of control group were injected intravenously with equal volume of saline. AFP/Compound 7 complex effect on humoral immune response was analyzed by counting the quantity of AFC in the spleen according to Cunningham (per 10^6 spleen cells and per spleen).
0.15 ml of AFP/Compound 15 complex (1:200) was administered intravenously to 6 mice males of C57B1/6 line (weight 18-22 g) in the dose of 9 μg of AFP and 91 μg of compound 15 per capita. Simultaneously, a suspension of 5·10^7 sheep erythrocytes was injected intraperitoneally (0.2 ml per capita). In the group receiving compound 15, the mice were injected intravenously by one in the dose of 91 μg. Animals in the AFP-group received 9 μg of AFP. […]

[4] = system: antibody-forming cells (AFC) in the spleen; test: Humoral immune response: counting antibody-forming cells (AFC) in the spleen according to Cunningham, mice immunised with sheep erythrocytes; format: in vivo, C57B1/6 mice; settings: compound alone
Description: as §1, §2
as §2, with “12” for “11”, “erythrocytes” for “erytrocytes”, “analyzed” for “analysed”
as §2, with “compound 8” for “compound 11”, “sheep erythrocytes” for “sheep erytrocytes”, “Mice of” for “Mice in”, “response were analyzed” for “response was analysed”
as §2, with “compound 3” for “compound 11”, “Mice of” for “Mice in”, “with” for “with an”, “response were” for “response was”
0.15 ml of compound 4 was administered intravenously to 6 female mice of the C57B1/6 line (weight 18-22 g) in a doses of 45.5, 91 and 136.5 μg of compound 4 per capita for each testing group according to the dose. Simultaneously, a suspension of 5·10^7 sheep erythrocytes was injected intraperitoneally (0.2 ml per capita). […]

[5] = system: hemagglutinating antibodies in serum; test: Humoral immune response: titers of hemagglutinating antibodies in serum; format: in vivo, C57B1/6 mice; settings: serum, female mice
[6] = 45.5 μg/mouse, i.v., 5th day, vs control

CC1=C(/C=C/C(C)=C/C=C/C(C)=C/C(=O)N[C@H](C(=O)O)[C@@H](C)OP(=O)(O)O)C(C)(C)CCC1 (relative stereo) [Compound 3, N-(all-trans-Retinoyl)-O-phospho-L-threonine]
Immunogenic activity ([1]; 45.5 μg/mouse): no immunogenic activity | Amount of antibody-forming cells per 10^6 spleen cells ([1]; 45.5 μg/mouse, i.v., 5th day): 472.2±52.4 cells per 10^6 spleen cells | Amount of antibody-forming cells per spleen ([1]; 45.5 μg/mouse, i.v., 5th day): 44.6±3.9 × 10^3 | Effect on relative amount of AFC (per 10^6 spleen cells) [1, 6]: +15.9 p > 00.05% | Effect on total AFC amount (per spleen) [1, 6]: +10.1 p > 0.05% | Effect on hemagglutinin titers ([1]; 45.5 μg/mouse, i.v., vs control): +4.8 p > 0.05% | Spleen index ([1]; 45.5 μg/mouse, i.v.): 6.1 ± 0.3 10^−3 | immunostimulating effect in vivo in micelle form ([1]; 91 μg/mouse): display immunostimulating effect in vivo | Amount of antibody-forming cells per 10^6 spleen cells ([1]; 91 μg/mouse, i.v., 5th day): 827.7±34.6 cells per 10^6 spleen cells | Amount of antibody-forming cells per spleen ([1]; 91 μg/mouse, i.v., 5th day): 60.3±4.1 × 10^3 | Amount of hemagglutinins ([1]; 91 μg/mouse, i.v.): 8.0±0.3 Log2 T | Spleen index ([1]; 91 μg/mouse, i.v.): 6.2 ± 0.2 10^−3 | Amount of antibody-forming cells per 10^6 spleen cells ([1]; 136.5 μg/mouse, i.v., 5th day): 961.3±56.5 cells per 10^6 spleen cells | Amount of antibody-forming cells per spleen ([1]; 136.5 μg/mouse, i.v., 5th day): 107.0±8.5 × 10^3 | Amount of hemagglutinins ([1]; 136.5 μg/mouse, i.v.): 8.7±0.3 Log2 T | Spleen index ([1]; 136.5 μg/mouse, i.v.): 6.8 ± 0.3 10^−3 | immunostimulating action ([1]; 91 and 136.5 μg/mouse): high immunostimulating action | Immunogenic activity ([2]; 45.5 μg/mouse): no immunogenic activity; also recorded: do not inhibit immunogenic activity | relative amount of AFC ([2]; 45.5 μg/mouse i.v., 5th day): 472.2±52.4 cells per 10^6 spleen cells | total AFC amount ([2]; 45.5 μg/mouse i.v., 5th day): 44.6±3.9 × 10^3

CC1=C(/C=C/C(C)=C/C=C/C(C)=C/C(=O)N[C@H](C(=O)O)[C@@H](C)OP(=O)(O)O)C(C)(C)CCC1 (relative stereo) [Compound 3, N-(all-trans-retinoyl)-o-phospho-L-threonine]
Dose at which immunostimulating effect in vivo is displayed [3]: 45.5 μg/mouse | Dose at which immunostimulating effect in vivo is displayed (micelle form) [4]: 91 μg/mouse | Amount of hemagglutinins ([5]; 45.5 μg/mouse i.v.): 6.6 ± 0.2 Log2 T | Amount of hemagglutinins ([5]; 91 μg/mouse i.v.): 8.0 ± 0.3 Log2 T | Amount of hemagglutinins ([5]; 136.5 μg/mouse i.v.): 8.7 ± 0.3 Log2 T

CC1=C(/C=C/C(C)=C/C=C/C(C)=C\C(=O)N[C@@H](COP(=O)(O)O)C(=O)O)C(C)(C)CCC1 (stereo in doubt) [Compound 2a, N-(13-cis-retinoyl)-o-phospho-L-serine]
Immunogenic activity ([3]; compound alone, 45.5 μg/mouse): no immunogenic activity; also recorded: do not inhibit immunogenic activity | Dose at which immunostimulating effect in vivo is displayed [3]: 45.5 μg/mouse | Dose at which immunostimulating effect in vivo is displayed (micelle form) [4]: 91 μg/mouse | Amount of hemagglutinins ([5]; 45.5 μg/mouse i.v.): 7.2 ± 0.3 Log2 T | Amount of hemagglutinins ([5]; 91 μg/mouse i.v.): 7.5 ± 0.2 Log2 T | Amount of hemagglutinins ([5]; 136.5 μg/mouse i.v.): 8.2 ± 0.4 Log2 T
